PMC11912471 (Journal of Medicinal Chemistry, 2025)

Key:
[1] = no reference printed for this property; cited from earlier work
[2] = system: polyamine levels in Kelly neuroblastoma cells; assay: Polyamine analysis (HPLC of dansylated polyamines); format: cell-based; conditions: 500 μM inhibitor
Experimental: Polyamines from Kelly neuroblastoma cells treated with 500 μM inhibitors were isolated, dansylated, and analyzed by HPLC. Briefly, polyamines were extracted and protonated in perchloric acid/sodium chloride buffer. To 100 μL of sample, 4.5 nmol of 1,7 diaminoheptane internal standard and 200 μL of 1 M sodium carbonate was added prior to dansylation with 400 μL of 5 mg/mL dansyl chloride (Sigma-Aldrich) for 60 min at 65 °C. One hundred μL of 1 M proline was then added to each reaction and incubated for 20 min at 65 °C. Polyamines were extracted from the mixture using methylene chloride. The methylene chloride was allowed to evaporate, the samples were resuspended in methanol and run through a C18 cleanup column. Samples were then analyzed using a Thermo Scientific/Dionex Ultimate 3000 HPLC, using a Syncronis C18 column (250 × 4.6 mm, […] pore size), and containing a fluorescence detector. The dansylated polyamine peaks were visualized by excitation at 340 nm and emission at 515 nm. The buffers used for elution of the polyamines were as follows: buffer A: 10 mM sodium heptanesulfonate/10% acetontrile at pH 3.4. Buffer B: 100% acetonitrile. The flow rate was 0.7 mL per minute. The column was equilibrated with 55% buffer B/45% buffer A prior to injection of the sample. Upon injection of the sample, elution of polyamines occurs in an isocratic solution of 55% buffer B/45% buffer A for 28 min. The solution was then slowly ramped to 95% buffer B/5% buffer A for 20 min. This gradient was held for 27 min to elute the spermine peak. The solution was then quickly dropped back to 55% buffer B/45% buffer A to re-equilibrate the column prior to the next sample being injected. Using the relative molar response derived from N-dansylated PA and 1,7 diaminoheptane standards, the amount of N-dansylated polyamines was calculated and normalized to total sample protein.

[3] = system: Kelly neuroblastoma cells; assay: Sulforhodamine B (SRB) cytotoxicity assay, Kelly neuroblastoma cells; format: cell-based
Experimental: (§1) Our strategy to identify novel ODC inhibitors was to first screen new analogs for ODC inhibition at 50 μM using our in vitro enzyme activity assay and purified human ODC (Table 1). Those showing significant inhibition were then titrated to provide an ODC IC50 followed by cell-based screening against both cancer (Kelly neuroblastoma) and noncancerous (neonatal fibroblasts) cell lines. For the cancer cell line, higher cytotoxicity was desired and for the noncancerous cell line counter screen, lower cytotoxicity was desired.
(§2) Normal primary human neonatal fibroblast cells (ATCC) were maintained in DMEM medium (Gibco) supplemented with 10% heat-inactivated fetal bovine serum (Hyclone), penicillin (100 IU/mL), and streptomycin (100 μg/mL), nonessential amino acids (0.1 mM) and sodium pyruvate (1 mM). Kelly neuroblastoma cells (Sigma-Aldrich) were maintained in RPMI medium (Corning) supplemented with 10% heat-inactivated fetal bovine serum (Hyclone), penicillin (100 IU/mL), and streptomycin (100 μg/mL). Cell lines were routinely monitored for mycoplasma contamination using the MycoAlert PLUS Mycoplasma Detection Kit (Lonza).
(§3) The colorimetric sulforhodamine B (SRB) assay was used to measure cytotoxicity following treatment with ODC inhibitors. Briefly, Kelly neuroblastoma cells and normal primary human neonatal fibroblast cells were plated in transparent flat 96-well plates and allowed to attach overnight. Cells were treated with control or 500 μM ODC inhibitor for 72 h. Cells were then fixed with 10% TCA at 4 °C for 1 h, washed with deionized water, and dried at room temperature. Cells were stained with 100 μL of 0.4% SRB in 1% acetic acid for 20 min at room temperature, rinsed five times with 1% acetic acid and allowed to dry at room temperature. One hundred μL of 10 mM Tris–HCl pH 7.0 was added to each well, shaken for 10 min at room temperature and absorbance was read at 540 nm. Absorbance values were normalized relative to control readings and converted to percentage by multiplying by one hundred. The percent cytotoxicity was then determined by subtracting the relative percentage of the ODC inhibitor treated readings from the control which is 100%.

[4] = Sulforhodamine B (SRB) cytotoxicity assay, neonatal fibroblasts; format: cell-based, human; conditions: human, normal primary neonatal fibroblast cells; 72 hrs @500 µM; supplement csv
Experimental: as §1, §2, §3

[5] = system: normal primary human neonatal fibroblast cells; assay: as above; format: cell-based; conditions: 500 μM
Experimental: as §1, §2, §3

[6] = cited from earlier work
[7] = target: T1, purified human ODC enzyme (Homo sapiens, UniProt P11926); assay: In vitro ODC enzyme activity assay; format: biochemical; conditions: read-out: ODC biochemical inhibition % (50 μM)
T1 construct: His6 (C); made in house; host or cells: E. coli BL21(DE3)
T1 sequence (P11926 1-461): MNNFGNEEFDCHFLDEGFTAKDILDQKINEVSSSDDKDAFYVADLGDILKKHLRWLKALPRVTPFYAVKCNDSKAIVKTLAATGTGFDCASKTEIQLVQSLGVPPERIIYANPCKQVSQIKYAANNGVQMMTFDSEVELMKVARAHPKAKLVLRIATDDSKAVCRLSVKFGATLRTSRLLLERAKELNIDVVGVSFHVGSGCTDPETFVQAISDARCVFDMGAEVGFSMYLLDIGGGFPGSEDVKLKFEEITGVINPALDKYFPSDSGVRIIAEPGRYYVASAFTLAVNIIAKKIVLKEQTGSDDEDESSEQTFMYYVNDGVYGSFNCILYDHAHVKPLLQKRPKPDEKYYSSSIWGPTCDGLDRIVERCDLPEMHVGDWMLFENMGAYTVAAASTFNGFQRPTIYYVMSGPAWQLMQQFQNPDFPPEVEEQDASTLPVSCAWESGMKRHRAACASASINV
Experimental: as §1
In vitro ODC activity was measured using 100 ng of purified human ODC enzyme, as we previously described.[53],[99] ODC was incubated with increasing concentrations of inhibitors for 30 min at room temperature in a buffer containing 25 mM Tris and 0.1 mM EDTA. […] In the cell-based ODC activity assay, Kelly neuroblastoma cells that were treated with 500 μM inhibitors were harvested in a buffer containing 25 mM Tris HCl, 0.1 mM EDTA, and 2.5 mM DTT. […] For both the in vitro and cell-based assay, the microcentrifuge tubes were then placed into scintillation vials containing a piece of filter paper saturated with 200 μL of 0.1 M NaOH to capture the release of radiolabeled carbon dioxide. The samples were incubated in a 37 °C incubator while shaking for 30 min (in vitro) or 2 h (cell-based). The enzymatic reaction was stopped by adding 250 μL of 5 M sulfuric acid to each sample and incubating at 37 °C while shaking for 30 min. The microcentrifuge tubes were removed from the scintillation vials, and 5 mL of scintillation fluid was added. Disintegrations per minute (DPM) of each sample was measured using a TriCarb liquid scintillation counter (PerkinElmer). The specific ODC activity is expressed as nmol CO2/min/mg protein (in vitro) or pmol CO2/min/mg protein (cell-based). The individual ODC inhibitor IC50 values were determined using Graphpad Prism 8.

[8] = set-up: method as in PMID 11004451; conditions: due to an amino acid transporter; cited from earlier work

inhibition at 50 µM [7]: 47%
SMILES: NCCC[C@](N)(C(=O)O)C(F)F [DFMO, α-difluoromethylornithine]
water solubility (in words) [1]: water-soluble
Kelly Treated Neuroblastoma Cells (Total Spm) ([2]; Control = 2.57+0.47): 3.52+0.35
Kelly Treated Neuroblastoma Cells (Spd) ([2]; Control = 8.52+1.63): 1.99+1.06
Kelly Treated Neuroblastoma Cells (Total Put) ([2]; Control = 9.71+1.31): 0
Kelly Treated Neuroblastoma Cells (Total PA) ([2]; Control = 20.81 +2.67): 5.51+1.06
putrescine level (in words) ([2]; Kelly neuroblastoma cells, Figure 6B): undetected
spermidine and spermine levels (in words) ([2]; Kelly neuroblastoma cells, relative to APA): greatest reductions
activity against Kelly neuroblastoma cells (in words) ([3]; 72 h, 500 μM): relatively moderate cytotoxic activity
Cell cytotoxicity (72 hr @ 500 μM) Kelly Neuroblastoma ([3]; 72 hr, 500 μM, percent cytotoxicity): 26±9%
cytotoxicity at 500 µM ([3]; Kelly, 72 hrs @500 µM, supplement csv, read-out: Kelly Neuroblasoma Cells (72 hrs @500 µM) %cytotoxicity): 26%
cytotoxicity at 72 h, 500 µM [4]: 41%
cytotoxic activity against neonatal fibroblasts (in words) ([5]; 72 h): greater cytotoxic activity
Cell cytotoxicity (72 hr @ 500 μM) Neonatal Fibroblasts ([5]; 72 hr, percent cytotoxicity): 41±12%
clearance (in words) [6]: rapid clearance
permeability (in words) [8]: permeable
